Results taken from PubChem BioAssay (NCI).
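Exposure lasted 48 hours, with cells grown in 96-well plates and compounds tested at five concentrations. GI50 is the concentration that inhibits growth by half. At the TGI there is no net growth.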

How the values were obtained:
Assay in all cases: NCI-60 cell line screen, 48 h
[1] = tested on: HOP-92 NSCLC
[2] = tested on: HT29 colon
[3] = tested on: UACC-62 melanoma
[4] = tested on: OVCAR-3 ovarian
[5] = tested on: CCRF-CEM leukemia
[6] = tested on: NCI/ADR-RES ovarian
[7] = tested on: ACHN renal
[8] = tested on: OVCAR-4 ovarian
[9] = tested on: COLO 205 colon
[10] = tested on: SK-MEL-28 melanoma

Compound | TGI [1] [µM] | TGI [2] [µM] | TGI [3] [µM] | TGI [4] [µM] | TGI [5] [µM] | TGI [6] [µM] | TGI [7] [µM] | TGI [8] [µM] | TGI [9] [µM] | TGI [10] [µM] | GI50 [1] [nM] | GI50 [2] [nM] | GI50 [3] [µM] | GI50 [4] [nM] | GI50 [5] [nM] | GI50 [6] [nM] | GI50 [7] [nM] | GI50 [8] [nM] | GI50 [9] [µM] | GI50 [10] [µM]
CC1(CCc2ccccc2)CC1(Br)Br (stereo not given) | 60.2 | > 100 | > 100 | 39.9 | 67.7 | > 100 | 61 | > 100 | 51.7 | > 100 | – | – | – | – | – | – | – | – | – | –
c1ccc2c(c1)CCN(C1=NCCO1)C2 | > 10 | > 10 | > 10 | > 10 | > 10 | > 10 | > 10 | > 10 | > 10 | > 10 | – | – | – | – | – | – | – | – | – | –
O=C1OC(C2Cc3ccccc3C2=O)c2ccccc21 (stereo not given) | > 100 | 60.5 | > 100 | > 100 | > 100 | > 100 | > 100 | > 100 | > 100 | > 100 | – | – | – | – | – | – | – | – | – | –
N#Cc1ccc(OC(=O)c2ccc(N=C(N)N)cc2)cc1 | > 100 | > 100 | > 100 | > 100 | 54.8 | > 100 | > 100 | > 100 | > 100 | > 100 | – | – | – | – | – | – | – | – | – | –
O=C(Nc1ccc(-n2cc(-c3ccncc3)c(-c3ccc(O)c(Cl)c3)n2)cc1)c1cc(Cl)cc(Cl)c1 | > 32.5 | 5.11 | > 32.5 | > 32.5 | > 32.5 | > 32.5 | > 32.5 | > 32.5 | > 32.5 | > 32.5 | 1280 | 1010 | 3.01 | 1910 | 1450 | 1920 | 1510 | 2560 | > 32.5 | 3.19
O=C(O)C(F)(F)C(F)(F)C(F)(F)C(F)(F)C(=O)O | > 100 | > 100 | > 100 | > 100 | > 100 | > 100 | > 100 | > 100 | > 100 | > 100 | – | – | – | – | – | – | – | – | – | –
O=C1c2n[nH]nc2C(=O)c2n[nH]nc21 | > 100 | > 100 | > 100 | > 100 | > 100 | > 100 | > 100 | > 100 | > 100 | > 100 | – | – | – | – | – | – | – | – | – | –
[N-]=[N+]=NC1=NNC2(C(=O)N1)c1ccccc1-c1ccccc12 | > 100 | > 100 | > 100 | > 100 | > 100 | > 100 | > 100 | > 100 | > 100 | > 100 | – | – | – | – | – | – | – | – | – | –
CCSCC(=O)N1CCc2c([nH]c3ccccc23)C1=O | 92.8 | > 100 | > 100 | > 100 | > 100 | > 100 | > 100 | > 100 | > 100 | > 100 | – | – | – | – | – | – | – | – | – | –
COC(=O)c1ccc(CCC2=CC(=O)C(Br)=CC2=O)cc1 | 11.9 | 30.9 | 31.7 | 31.4 | 0.887 | 43.8 | 25.1 | 30.9 | 18.7 | 31.1 | – | – | – | – | – | – | – | – | – | –
CCOP(=O)(CC1CC(O)(CNc2cc(Cl)nc(N)n2)C1)OCC (stereo not given) | > 100 | > 100 | > 100 | > 100 | > 100 | > 100 | > 100 | > 100 | > 100 | > 100 | – | – | – | – | – | – | – | – | – | –
O=C1c2cc([N+](=O)[O-])cnc2S(=O)(=O)N1c1ccc(Br)cc1 | > 100 | > 100 | > 100 | > 100 | > 100 | > 100 | > 100 | > 100 | > 100 | > 100 | – | – | – | – | – | – | – | – | – | –
CSc1nc2c(c(=O)n1C)N=C(c1ccc(Cl)cc1)CC(c1ccccc1)N2 (stereo not given) | > 100 | 31.6 | 34.7 | > 100 | 72.6 | 74.1 | 44.6 | 23.7 | 39.2 | > 100 | – | – | – | – | – | – | – | – | – | –
O=C(O)CCC(C(=O)O)N1C(=O)c2ccccc2C1=O (stereo not given) | > 100 | > 100 | > 100 | > 100 | > 100 | > 100 | > 100 | > 100 | > 100 | > 100 | – | – | – | – | – | – | – | – | – | –
CC(=O)Nc1ccc(N2C(=O)CS(=O)(=O)C2c2cccc(Oc3ccccc3)c2)cc1 (stereo not given) | 29.5 | 37.7 | 27.9 | 38.2 | > 100 | 48.7 | 36.3 | 38.9 | 35.7 | 48.3 | – | – | – | – | – | – | – | – | – | –
